Laboratory results: ChEMBL document CHEMBL3046322, “Insect growth regulatory effects by diterpenes from Calceolaria talcana Grau & Ehrhart (Calceolariaceae: Scrophulariaceae) against Spodoptera frugiperda and Drosophila melanogaster” (2013)
Calls of active or inactive are those of the source. No cut-off for these calls is given here.

Key:
Spodoptera frugiperda [1] = experiment: Growth inhibitory activity against first-instar larval stage of Spodoptera frugiperda (fall armyworm) fed with compound incorporated diet assessed as length gained at 5 ug/ml after 7 days (reference value: 100%); format: functional; parameters: scale not given: the % may be the effect or the level left
Spodoptera frugiperda [2] = experiment: Growth inhibitory activity against first-instar larval stage of Spodoptera frugiperda (fall armyworm) fed with compound incorporated diet assessed as weight gained at 50 ug/ml after 7 days (reference value: 100%); format: functional; parameters: scale not given: the % may be the effect or the level left
Spodoptera frugiperda [3] = experiment: Growth inhibitory activity against first-instar larval stage of Spodoptera frugiperda (fall armyworm) fed with compound incorporated diet assessed as weight gained at 20 ug/ml after 7 days (reference value: 100%); format: functional; parameters: scale not given: the % may be the effect or the level left
Spodoptera frugiperda [4] = experiment: Growth inhibitory activity against first-instar larval stage of Spodoptera frugiperda (fall armyworm) fed with compound incorporated diet assessed as weight gained at 10 ug/ml after 7 days (reference value: 100%); format: functional; parameters: scale not given: the % may be the effect or the level left
Spodoptera frugiperda [5] = experiment: Growth inhibitory activity against first-instar larval stage of Spodoptera frugiperda (fall armyworm) fed with compound incorporated diet assessed as weight gained at 5 ug/ml after 7 days (reference value: 100%); format: functional; parameters: scale not given: the % may be the effect or the level left
Spodoptera frugiperda [6] = experiment: Growth inhibitory activity against Spodoptera frugiperda (fall armyworm) larvae fed with compound containing diet assessed as growth index at 35 ug/ml (reference value: 0.95 +/-0.02 no_unit); format: functional
Spodoptera frugiperda [7] = experiment: Growth inhibitory activity against Spodoptera frugiperda (fall armyworm) larvae fed with compound containing diet assessed as relative growth index at 35 ug/ml (reference value: 1.0 no_unit); format: functional
Spodoptera frugiperda [8] = experiment: Growth inhibitory activity against Spodoptera frugiperda (fall armyworm) larvae fed with compound containing diet assessed as relative growth index at 20 ug/ml (reference value: 1.0 no_unit); format: functional
Spodoptera frugiperda [9] = experiment: Growth inhibitory activity against Spodoptera frugiperda (fall armyworm) larvae fed with compound containing diet assessed as growth index at 20 ug/ml (reference value: 0.95 +/-0.02 no_unit); format: functional
Spodoptera frugiperda [10] = experiment: Growth inhibitory activity against Spodoptera frugiperda (fall armyworm) larvae fed with compound containing diet assessed as growth index at 10 ug/ml (reference value: 0.95 +/-0.02 no_unit); format: functional
Spodoptera frugiperda [11] = experiment: Growth inhibitory activity against Spodoptera frugiperda (fall armyworm) larvae fed with compound containing diet assessed as reduction in adult emergence at 20 ug/ml; format: functional
Spodoptera frugiperda [12] = experiment: Growth inhibitory activity against Spodoptera frugiperda (fall armyworm) larvae fed with compound containing diet assessed as reduction in pupae weight at 25 ug/ml; format: functional, organism-based
Spodoptera frugiperda [13] = experiment: Growth inhibitory activity against po dosed Spodoptera frugiperda (fall armyworm) larvae assessed as promotion of apolysis to fifth instar with ecdysis inhibition at 5 to 20 ug/ml; format: functional, organism-based
Drosophila melanogaster [14] = experiment: Insecticidal activity against Drosophila melanogaster larvae fed with compound incorporated diet assessed as mortality at 50 ug/ml after 72 hr by not choice test (reference value: 0%); format: functional
Drosophila melanogaster [15] = experiment: Insecticidal activity against Drosophila melanogaster larvae fed with compound incorporated diet assessed as mortality at 10 ug/ml after 72 hr by not choice test (reference value: 0%); format: functional
Spodoptera frugiperda [16] = experiment: Acute toxicity against last larval stage of Spodoptera frugiperda (fall armyworm) assessed as mortality applied topically onto abdomen measured after 7 days; format: functional; conditions: topical, 168 h
Spodoptera frugiperda [17] = experiment: Acute toxicity against last larval stage of Spodoptera frugiperda (fall armyworm) assessed as survival at 10 ug/ml applied topically onto abdomen measured after 24 hr (reference value: 98.8 +/-3.5%); format: functional
Spodoptera frugiperda [18] = experiment: Acute toxicity against last larval stage of Spodoptera frugiperda (fall armyworm) assessed as survival at 5 ug/ml applied topically onto abdomen measured after 24 hr (reference value: 98.8 +/-3.5%); format: functional
Spodoptera frugiperda [19] = experiment: Insecticidal activity against first-instar larval stage of Spodoptera frugiperda (fall armyworm) fed with compound incorporated diet assessed as mortality at 40 ug/ml after 7 days; format: functional, organism-based
Spodoptera frugiperda [20] = experiment: Insecticidal activity against first-instar larval stage of Spodoptera frugiperda (fall armyworm) fed with compound incorporated diet assessed as mortality at 50 to 100 ug/ml after 7 days; format: functional
Spodoptera frugiperda [21] = experiment: Insecticidal activity against first-instar larval stage of Spodoptera frugiperda (fall armyworm) fed with compound incorporated diet assessed as mortality at 35 ug/ml after 21 days (reference value: 5.6%); format: functional; conditions: 504 h
Spodoptera frugiperda [22] = experiment: Growth inhibitory activity against first-instar larval stage of Spodoptera frugiperda (fall armyworm) fed with compound incorporated diet assessed as length gained at 20 ug/ml after 21 days (reference value: 100%); format: functional; parameters: scale not given: the % may be the effect or the level left
Spodoptera frugiperda [23] = experiment: Growth inhibitory activity against first-instar larval stage of Spodoptera frugiperda (fall armyworm) fed with compound incorporated diet assessed as length gained at 10 ug/ml after 21 days (reference value: 100%); format: functional
Spodoptera frugiperda [24] = experiment: Growth inhibitory activity against first-instar larval stage of Spodoptera frugiperda (fall armyworm) fed with compound incorporated diet assessed as weight gained at 50 ug/ml after 21 days (reference value: 100%); format: functional
Spodoptera frugiperda [25] = experiment: Growth inhibitory activity against first-instar larval stage of Spodoptera frugiperda (fall armyworm) fed with compound incorporated diet assessed as weight gained at 20 ug/ml after 21 days (reference value: 100%); format: functional
Spodoptera frugiperda [26] = experiment: Growth inhibitory activity against first-instar larval stage of Spodoptera frugiperda (fall armyworm) fed with compound incorporated diet assessed as weight gained at 10 ug/ml after 21 days (reference value: 100%); format: functional
Spodoptera frugiperda [27] = experiment: Growth inhibitory activity against first-instar larval stage of Spodoptera frugiperda (fall armyworm) fed with compound incorporated diet assessed as weight gained at 5 ug/ml after 21 days (reference value: 100%); format: functional
Spodoptera frugiperda [28] = experiment: Insecticidal activity against first-instar larval stage of Spodoptera frugiperda (fall armyworm) fed with compound incorporated diet assessed as mortality at 50 ug/ml after 7 days (reference value: 5.6%); format: functional; conditions: 168 h
Spodoptera frugiperda [29] = experiment: Insecticidal activity against first-instar larval stage of Spodoptera frugiperda (fall armyworm) fed with compound incorporated diet assessed as mortality at 20 ug/ml after 7 days (reference value: 5.6%); format: functional; conditions: 168 h
Spodoptera frugiperda [30] = experiment: Insecticidal activity against first-instar larval stage of Spodoptera frugiperda (fall armyworm) fed with compound incorporated diet assessed as mortality at 35 ug/ml after 7 days (reference value: 5.6%); format: functional; conditions: 168 h
Spodoptera frugiperda [31] = experiment: Insecticidal activity against first-instar larval stage of Spodoptera frugiperda (fall armyworm) fed with compound incorporated diet assessed as mortality at 10 ug/ml after 7 days (reference value: 5.6%); format: functional; conditions: 168 h
Spodoptera frugiperda [32] = experiment: Insecticidal activity against first-instar larval stage of Spodoptera frugiperda (fall armyworm) fed with compound incorporated diet assessed as mortality at 20 ug/ml after 21 days (reference value: 5.6%); format: functional; conditions: 504 h
Spodoptera frugiperda [33] = experiment: Insecticidal activity against first-instar larval stage of Spodoptera frugiperda (fall armyworm) fed with compound incorporated diet assessed as mortality at 10 ug/ml after 21 days (reference value: 5.6%); format: functional; conditions: 504 h
Spodoptera frugiperda [34] = experiment: Growth inhibitory activity against first-instar larval stage of Spodoptera frugiperda (fall armyworm) fed with compound incorporated diet assessed as length gained at 35 ug/ml after 21 days (reference value: 100%); format: functional
Spodoptera frugiperda [35] = experiment: Growth inhibitory activity against first-instar larval stage of Spodoptera frugiperda (fall armyworm) fed with compound incorporated diet assessed as length gained at 35 ug/ml after 7 days (reference value: 100%); format: functional
Spodoptera frugiperda [36] = experiment: Growth inhibitory activity against first-instar larval stage of Spodoptera frugiperda (fall armyworm) fed with compound incorporated diet assessed as length gained at 20 ug/ml after 7 days (reference value: 100%); format: functional
Spodoptera frugiperda [37] = experiment: Growth inhibitory activity against first-instar larval stage of Spodoptera frugiperda (fall armyworm) fed with compound incorporated diet assessed as length gained at 10 ug/ml after 7 days (reference value: 100%); format: functional

Work on C=CC(C)(C)C1=C(O)C(=O)c2ccccc2C1=O yielded an Activity (Spodoptera frugiperda [1]) of 50.8%, an Activity (Spodoptera frugiperda [2]) of 0% and an Activity (Spodoptera frugiperda [3]) of 15.9%. The Activity (Spodoptera frugiperda [4]) was 29.3%, the Activity (Spodoptera frugiperda [5]) was 47.4% and the Growth_index (Spodoptera frugiperda [6]) was 0.09. The Growth_index (Spodoptera frugiperda [7]) was 0.1, the Growth_index (Spodoptera frugiperda [8]) was 0.12 and the Growth_index (Spodoptera frugiperda [9]) was 0.12. For the same molecule, the Growth_index (Spodoptera frugiperda [10]) was 0.41, the inhibition at 20 µg/mL (Spodoptera frugiperda [11]) was 0% and the inhibition (Spodoptera frugiperda [12]) was “Active”. The Activity (Spodoptera frugiperda [13]) was “Active”, the mortality at 50 µg/mL (Drosophila melanogaster [14]) was 100% and the mortality at 10 µg/mL (Drosophila melanogaster [15]) was 30%. It also gave an LD50 (Spodoptera frugiperda [16]) of 3.64 µg/mL, an Activity (Spodoptera frugiperda [17]) of 6.8% and an Activity (Spodoptera frugiperda [18]) of 35.5%. The mortality (Spodoptera frugiperda [19]) was “Active”, the mortality (Spodoptera frugiperda [20]) was 100% and the mortality at 35 µg/mL (Spodoptera frugiperda [21]) was 100%. The Activity (Spodoptera frugiperda [22]) was 4.1%, the “Length gained relative to control” value (Spodoptera frugiperda [23]) was 39.8% and the “Weight gain relative to control” value (Spodoptera frugiperda [24]) was 0%. The “Weight gain relative to control” value (Spodoptera frugiperda [25]) was 9%, the “Weight gain (% of control)” value (Spodoptera frugiperda [26]) was 27.7% and the “Larval weight gain relative to control” value (Spodoptera frugiperda [27]) was 35.6%. For the same molecule, the mortality at 50 µg/mL (Spodoptera frugiperda [28]) was 100%, the mortality at 20 µg/mL (Spodoptera frugiperda [29]) was 91.7% and the mortality at 35 µg/mL (Spodoptera frugiperda [30]) was 95.8%. For the same molecule, the mortality at 10 µg/mL (Spodoptera frugiperda [31]) was 83.3%, the mortality at 20 µg/mL (Spodoptera frugiperda [32]) was 98% and the mortality at 10 µg/mL (Spodoptera frugiperda [33]) was 41.7%. For the same molecule, the “Length gained relative to control” value (Spodoptera frugiperda [34]) was 4.1%, the “Length gained relative to control” value (Spodoptera frugiperda [35]) was 10% and the “Length gained relative to control” value (Spodoptera frugiperda [36]) was 20.8%. The “Larval length gained (% of control)” value (Spodoptera frugiperda [37]) was 24.2%.

In the case of C=C[C@]1(C)CC[C@H]2C(=CC[C@@H]3[C@](C)(CO)CC[C@@H]4C[C@@]432)C1, the Activity (Spodoptera frugiperda [1]) is reported as 68.7%, the Activity (Spodoptera frugiperda [2]) is reported as 0% and the Activity (Spodoptera frugiperda [3]) is reported as 6.8%. It also gave an Activity (Spodoptera frugiperda [4]) of 17.1%, an Activity (Spodoptera frugiperda [5]) of 25.1% and a Growth_index (Spodoptera frugiperda [6]) of 0.09. The Growth_index (Spodoptera frugiperda [7]) was 0.1, the Growth_index (Spodoptera frugiperda [8]) was 0.19 and the Growth_index (Spodoptera frugiperda [9]) was 0.19. For the same molecule, the Growth_index (Spodoptera frugiperda [10]) was 0.21, the inhibition at 20 µg/mL (Spodoptera frugiperda [11]) was 0% and the inhibition (Spodoptera frugiperda [12]) was “Active”. For the same molecule, the Activity (Spodoptera frugiperda [13]) was “Active”, the mortality at 10 µg/mL (Drosophila melanogaster [15]) was 30% and the LD50 (Spodoptera frugiperda [16]) was 3.02 µg/mL. For the same molecule, the Activity (Spodoptera frugiperda [17]) was 3.5%, the Activity (Spodoptera frugiperda [18]) was 27% and the mortality (Spodoptera frugiperda [19]) was “Active”. The mortality (Spodoptera frugiperda [20]) was 100%, the mortality at 35 µg/mL (Spodoptera frugiperda [21]) was 100% and the Activity (Spodoptera frugiperda [22]) was 0%. The “Length gained relative to control” value (Spodoptera frugiperda [23]) was 30.8%, the “Weight gain relative to control” value (Spodoptera frugiperda [24]) was 0% and the “Weight gain relative to control” value (Spodoptera frugiperda [25]) was 0%. The “Weight gain (% of control)” value (Spodoptera frugiperda [26]) was 10.6%, the “Larval weight gain relative to control” value (Spodoptera frugiperda [27]) was 20.1% and the mortality at 50 µg/mL (Spodoptera frugiperda [28]) was 100%. It also gave a mortality at 20 µg/mL (Spodoptera frugiperda [29]) of 55.8%, a mortality at 35 µg/mL (Spodoptera frugiperda [30]) of 98.4% and a mortality at 10 µg/mL (Spodoptera frugiperda [31]) of 37.3%. The mortality at 20 µg/mL (Spodoptera frugiperda [32]) was 100%, the mortality at 10 µg/mL (Spodoptera frugiperda [33]) was 68.6% and the “Length gained relative to control” value (Spodoptera frugiperda [34]) was 0%. For the same molecule, the “Length gained relative to control” value (Spodoptera frugiperda [35]) was 7.5%, the “Length gained relative to control” value (Spodoptera frugiperda [36]) was 18.3% and the “Larval length gained (% of control)” value (Spodoptera frugiperda [37]) was 39%.
